Laboratory results reported in ChEMBL document CHEMBL4808216, “Gut-Restricted Selective Cyclooxygenase-2 (COX-2) Inhibitors for Chemoprevention of Colorectal Cancer” (J Med Chem, 2021).
Values after ≈ are worked out from the molar mass of the structure shown.

Columns and labels:
HEK293 = assay: Selectivity ratio of IC50 for COX1 (unknown origin) expressed in HEK293 TRex cells assessed as reduction in PGE2 production to IC50 for COX2 (unknown origin) expressed in HEK293 TRex cells assessed as reduction in PGE2 production; type: cell-based; settings: Homo sapiens
[1] = Drug concentration in C57BL/6J mouse colon at 10 mg/kg, po administered as cassette dose measured at 4 hrs by LC/MS/MS analysis; type: ADME, organism-based; settings: read-out: Ct
[2] = target: T1, Prostaglandin G/H synthase 1 (Homo sapiens, UniProt P23219); assay: Inhibition of COX1 (unknown origin) expressed in HEK293 TRex cells assessed as reduction in PGE2 production using arachidonic acid as substrate preincubated for 60 mins followed by substrate addition for 1 hr in presence of 10% FBS by RapidFire High-Throughput Mass Spectrometry; type: ADME, cell-based, HEK293-T-REx
T1 sequence (P23219 whole entry): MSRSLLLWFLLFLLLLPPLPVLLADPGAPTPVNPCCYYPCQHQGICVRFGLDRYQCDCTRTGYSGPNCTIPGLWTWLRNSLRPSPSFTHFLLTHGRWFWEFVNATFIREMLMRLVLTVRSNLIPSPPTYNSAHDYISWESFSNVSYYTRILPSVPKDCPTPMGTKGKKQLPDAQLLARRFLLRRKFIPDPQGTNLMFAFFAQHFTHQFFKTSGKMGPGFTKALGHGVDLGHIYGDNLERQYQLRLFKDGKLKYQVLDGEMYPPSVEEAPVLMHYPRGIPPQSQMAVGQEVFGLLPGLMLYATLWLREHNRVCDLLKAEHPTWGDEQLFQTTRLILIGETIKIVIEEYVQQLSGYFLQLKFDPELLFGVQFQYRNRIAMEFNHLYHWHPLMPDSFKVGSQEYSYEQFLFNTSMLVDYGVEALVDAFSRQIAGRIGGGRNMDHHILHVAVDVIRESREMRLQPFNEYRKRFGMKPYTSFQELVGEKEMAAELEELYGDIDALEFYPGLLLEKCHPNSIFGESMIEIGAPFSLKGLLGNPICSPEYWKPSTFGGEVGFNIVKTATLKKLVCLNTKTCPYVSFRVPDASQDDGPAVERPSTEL

[3] = Clearance in C57BL/6J mouse at 2 mg/kg, iv measured after 0.08 to 24 hrs; type: ADME, organism-based; settings: in vivo, time 0.08-24 hrs
[4] = Drug concentration in C57BL/6J mouse plasma at 10 mg/kg, po administered as cassette dose measured at 4 hrs by LC/MS/MS analysis; type: ADME, organism-based
[5] = target: T2, Prostaglandin G/H synthase 2 (Homo sapiens, UniProt P35354); assay: Inhibition of COX2 (unknown origin) expressed in HEK293 TRex cells assessed as reduction in PGE2 production using arachidonic acid as substrate preincubated for 60 mins followed by substrate addition for 1 hr in presence of 10% FBS by RapidFire High-Throughput Mass Spectrometry; type: cell-based, HEK293-T-REx
T2 sequence (P35354 whole entry): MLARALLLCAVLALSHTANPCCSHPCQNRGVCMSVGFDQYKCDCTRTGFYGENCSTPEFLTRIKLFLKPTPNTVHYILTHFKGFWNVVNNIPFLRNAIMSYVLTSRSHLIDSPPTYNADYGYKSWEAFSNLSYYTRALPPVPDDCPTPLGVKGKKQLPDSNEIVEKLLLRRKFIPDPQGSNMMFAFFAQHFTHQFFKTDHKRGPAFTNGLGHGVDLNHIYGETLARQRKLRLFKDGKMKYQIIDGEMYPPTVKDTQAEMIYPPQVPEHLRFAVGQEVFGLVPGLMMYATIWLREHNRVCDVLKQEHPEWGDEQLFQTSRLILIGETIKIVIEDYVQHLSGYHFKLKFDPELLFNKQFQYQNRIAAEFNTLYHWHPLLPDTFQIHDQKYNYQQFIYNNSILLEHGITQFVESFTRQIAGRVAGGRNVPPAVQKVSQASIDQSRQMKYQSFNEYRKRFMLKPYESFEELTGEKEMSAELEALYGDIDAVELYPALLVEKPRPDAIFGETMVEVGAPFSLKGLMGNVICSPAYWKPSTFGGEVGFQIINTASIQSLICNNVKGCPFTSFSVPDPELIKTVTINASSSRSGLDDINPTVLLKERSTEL

[6] = Ratio of drug concentration in C57BL/6J mouse colon to plasma at 10 mg/kg, po measured after 4 hr by liquid chromatographic triple-quadrupole mass spectrometric method; type: ADME, organism-based; settings: for Kp at 4 h: C57BL/6J, colon / plasma
[7] = target: T1, Prostaglandin G/H synthase 1; assay: Inhibition of human recombinant COX-1 assessed as reduction in peroxidase activity using arachidonic acid as substrate preincubated for 60 mins followed by substrate addition for 2 secs by ADPH based fluorometric analysis; type: ADME
[8] = target: T2, Prostaglandin G/H synthase 2; assay: Inhibition of human recombinant COX-2 assessed as reduction in peroxidase activity using arachidonic acid as substrate preincubated for 60 mins followed by substrate addition for 2 secs by ADPH based fluorometric analysis
Homo sapiens = species: Homo sapiens; assay: Selectivity ratio of IC50 for COX1 in human whole blood assessed as reduction in calcium ionophore-stimulated TXB2 production to IC50 for COX2 in human whole blood assessed as reduction in LPS stimulated PGE2 production; type: tissue-based
[9] = target: T2, Prostaglandin G/H synthase 2; assay: Inhibition of COX2 in human whole blood assessed as reduction in LPS stimulated PGE2 production incubated for 1 hr by ELISA; type: tissue-based
[10] = target: T3, Prostaglandin G/H synthase 2 (Homo sapiens) (UniProt P35354)
T3 sequence (whole entry): T2 sequence (P35354 whole entry)
Description: Protein occupancy at human recombinant COX-2 assessed as dissociation half life

[11] = Equilibrium solubility of compound in FASSIF at pH 6.5; type: physicochemical
[12] = target: T2, Prostaglandin G/H synthase 2; assay: Inhibition of human recombinant COX-2 using arachidonic acid as substrate preincubated for 60 mins followed by substrate addition for 2 secs by ADPH based fluorometric analysis
[13] = Drug concentration in C57BL/6J mouse portal vein plasma at 10 mg/kg, po administered as cassette dose measured at 4 hrs by LC/MS/MS analysis; type: ADME, organism-based
Mus musculus [14] = assay: Chemo-protective activity in C57BL/6J mouse model of spontaneous GI-tract tumor Apc-min assessed as 18F-FDG uptake in ileum at 300 mg/kg, po incorporated into chow diet administered daily for 2 weeks and measured after 14 days by ex vivo PET imaging analysis relative to control; type: functional
[15] = Protein binding in human plasma assessed as unbound fraction; type: ADME, cell-free
in vivo = settings: C57BL/6J, mouse, colon / portal vein plasma, po, 10 mg/kg
Description: Ratio of drug concentration in C57BL/6J mouse colon to portal vein plasma at 10 mg/kg, po measured after 4 hr by liquid chromatographic triple-quadrupole mass spectrometric method

[16] = target: T1, Prostaglandin G/H synthase 1; assay: Inhibition of COX1 in human whole blood assessed as reduction in calcium ionophore-stimulated TXB2 production incubated for 1 hr by ELISA; type: tissue-based
[17] = Protein binding in human colon assessed as unbound fraction; type: ADME, tissue-based
[18] = Half life in human hepatocytes; type: ADME, cell-based, Hepatocyte
[19] = Half life in human liver microsomes; type: ADME, Microsome
[20] = Volume of distribution at steady state in C57BL/6J mouse at 2 mg/kg, iv measured after 0.08 to 24 hrs; type: ADME, organism-based; settings: C57BL/6J, in vivo, time 0.08-24 hrs, read-out: Vdss
[21] = Half life in C57BL/6J mouse at 2 mg/kg, iv measured after 0.08 to 24 hrs; type: ADME, organism-based; settings: C57BL/6J, in vivo, time 0.08-24 hrs
[22] = Half life in mouse liver microsomes; type: ADME, Microsome
[23] = Tmax in C57BL/6J mouse at 10 mg/kg, po administered as cassette dose measured at 4 hrs by liquid chromatographic triple-quadrupole mass spectrometric method; type: ADME, organism-based; settings: in vivo
[24] = Half life in mouse hepatocytes; type: ADME, cell-based, Hepatocyte
Mus musculus [25] = assay: Antitumor activity in C57BL/6J mouse model of spontaneous GI-tract tumor Apc-min assessed as mouse survival at 100 mg/kg, po administered daily as suspension and measured at day 82 by Kaplan-Meier method; type: functional

CCCCOc1nc(OCC2COC2)c(-c2ccc(S(C)(=O)=O)cc2)cc1CO
Ratio IC50 (HEK293): 70 | concentration at 4 h [1]: 1870 ng/g | IC50 [2]: 2.46 µM | clearance [3]: 102 mL/min/kg | concentration at 4 h [4]: 6.7 ng/mL | IC50 [5]: 0.036 µM | Kp at 4 h [6]: 402

COCCOc1nc(OCC(C)(C)O)c(-c2ccc(S(C)(=O)=O)cc2)cc1CO
IC50 [2]: > 50 µM | IC50 [7]: > 50 µM | IC50 [5]: 2.95 µM | IC50 [8]: 18.2 µM

Cc1cnc(OCC(C)(C)O)c(-c2ccc(S(C)(=O)=O)cc2)c1
IC50 [2]: > 50 µM | IC50 [7]: > 50 µM | IC50 [5]: 1.89 µM | IC50 [8]: 6.36 µM

CCCCOc1nc(OCC2(O)CCC2)c(-c2ccc(S(C)(=O)=O)cc2)cc1CO
Ratio IC50 (Homo sapiens): > 200 | IC50 [9]: 0.146 µM | T1/2 [10]: 39 h | solubility thermodynamic [11]: 56.1 µM (≈ 24.4 µg/mL) | concentration at 4 h [1]: 5390 ng/g | IC50 [2]: 7.23 µM | Ki [12]: 0.003 µM | concentration at 4 h [13]: 82.4 ng/mL | IC50 [7]: > 50 µM | Activity (Mus musculus [14]): 61.2% | clearance [3]: 100 mL/min/kg | fraction unbound [15]: 0.005 | concentration at 4 h [4]: 9.9 ng/mL | Kp at 4 h (in vivo): 69.9 | IC50 [5]: 0.037 µM | IC50 [16]: > 60 µM | Kp at 4 h [6]: 545 | IC50 [8]: 0.12 µM | fraction unbound [17]: 0.055

CCCCOc1nc(OCC(C)(C)O)c(-c2ccc(S(C)(=O)=O)cc2)cc1COCCO
concentration at 4 h [1]: 478 ng/g | IC50 [2]: > 50 µM | clearance [3]: 55.4 mL/min/kg | concentration at 4 h [4]: 28.7 ng/mL | IC50 [5]: 0.54 µM | Kp at 4 h [6]: 16.5

COc1nc(OCC(C)(C)O)c(-c2ccc(S(C)(=O)=O)cc2)cc1CO
IC50 [2]: > 50 µM | IC50 [7]: > 50 µM | IC50 [5]: > 50 µM | IC50 [8]: 17.1 µM

CCc1cnc(OCC(C)(C)O)c(-c2ccc(S(C)(=O)=O)cc2)c1
half-life [18]: 84.2 min | half-life [19]: 68.7 min | concentration at 4 h [1]: 51.6 ng/g | IC50 [2]: > 50 µM | Vd [20]: 1.35 L/kg | half-life [21]: 19.2 min | IC50 [7]: > 50 µM | clearance [3]: 65.6 mL/min/kg | half-life [22]: 13.2 min | concentration at 4 h [4]: 21.8 ng/mL | IC50 [5]: 0.95 µM | Tmax [23]: 15 min | Kp at 4 h [6]: 2.5 | IC50 [8]: 3.24 µM | half-life [24]: 3.2 min

CCCCOc1nc(OCC2(C)COC2)c(-c2ccc(S(C)(=O)=O)cc2)cc1CO
concentration at 4 h [1]: 1850 ng/g | IC50 [2]: > 50 µM | clearance [3]: 89.3 mL/min/kg | concentration at 4 h [4]: 2 ng/mL | IC50 [5]: 0.21 µM | Ratio ([6]; other tissue, 10 mg/kg, 4 h): 1040

CCCCOc1nc(OCC(C)(C)O)c(-c2ccc(S(C)(=O)=O)cc2)cc1C(C)O (configuration not stated)
concentration at 4 h [1]: 2810 ng/g | IC50 [2]: 7.69 µM | clearance [3]: 48.2 mL/min/kg | concentration at 4 h [4]: 22.8 ng/mL | IC50 [5]: 2.34 µM | Kp at 4 h [6]: 134

Cc1ccc(-c2ncc(Cl)cc2-c2ccc(S(C)(=O)=O)cc2)cn1 [ETORICOXIB]
T1/2 [10]: 6.1 h | solubility thermodynamic [11]: 358 µM (≈ 128 µg/mL) | half-life [18]: > 371 min | half-life [19]: > 184 min | concentration at 4 h [1]: 55.7 ng/g | IC50 [2]: > 50 µM | Vd [20]: 1.27 L/kg | half-life [21]: 46.8 min | concentration at 4 h [13]: 48.6 ng/mL | IC50 [7]: > 50 µM | Activity (Mus musculus [14]): 43.5% | clearance [3]: 41.3 mL/min/kg | fraction unbound [15]: 0.114 | half-life [22]: 53.8 min | concentration at 4 h [4]: 36.4 ng/mL | Survival (Mus musculus [25]): >82 days | Kp at 4 h (in vivo): 1.2 | Tmax [23]: 15 min | IC50 [16]: 93.8 µM | Kp at 4 h [6]: 1.5 | half-life [24]: 29.2 min
